# Measurements: ChEMBL document CHEMBL1201862, “PubChem BioAssay data set” (2004)
# Activity calls are given as the source filed them.
# What was measured:
# [1] = biological target: T1, Aryl hydrocarbon receptor (Homo sapiens, UniProt P35869); test: Luminescence-based cell-based high throughput dose response assay for activators of the Aryl Hydrocarbon Receptor (AHR). [Related pubchem assays: 2796 (Primary screen (AHR activators in singlicate)), 2845 (Confirmation screen (AHR activators in triplicate)), 434939 (Counterscreen (PXR activators in triplicate)), 2804 (Summary (AHR activators))]; type: ADME
# T1 sequence (P35869 whole entry): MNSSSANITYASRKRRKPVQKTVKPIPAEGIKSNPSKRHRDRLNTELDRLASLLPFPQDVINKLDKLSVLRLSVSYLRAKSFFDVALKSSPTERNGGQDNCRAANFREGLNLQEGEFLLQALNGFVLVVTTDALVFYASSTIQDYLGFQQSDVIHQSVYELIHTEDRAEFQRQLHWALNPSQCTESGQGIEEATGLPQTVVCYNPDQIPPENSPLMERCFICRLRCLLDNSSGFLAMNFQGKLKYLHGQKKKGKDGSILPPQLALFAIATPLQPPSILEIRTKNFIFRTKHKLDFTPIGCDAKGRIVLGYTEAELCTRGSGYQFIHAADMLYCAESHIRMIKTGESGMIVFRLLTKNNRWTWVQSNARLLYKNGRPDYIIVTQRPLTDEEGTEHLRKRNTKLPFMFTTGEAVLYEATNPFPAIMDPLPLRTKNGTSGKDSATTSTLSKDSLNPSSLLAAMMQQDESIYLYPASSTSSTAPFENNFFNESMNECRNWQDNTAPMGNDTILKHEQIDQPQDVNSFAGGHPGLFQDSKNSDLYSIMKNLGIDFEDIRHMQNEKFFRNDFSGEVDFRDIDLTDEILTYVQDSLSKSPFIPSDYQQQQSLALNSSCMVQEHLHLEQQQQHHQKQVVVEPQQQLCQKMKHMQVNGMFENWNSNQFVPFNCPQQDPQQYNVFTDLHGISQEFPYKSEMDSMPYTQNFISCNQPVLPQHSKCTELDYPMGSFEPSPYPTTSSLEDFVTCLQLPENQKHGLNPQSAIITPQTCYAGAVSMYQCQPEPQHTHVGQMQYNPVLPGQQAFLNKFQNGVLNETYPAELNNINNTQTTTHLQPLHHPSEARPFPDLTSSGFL
# [2] = HIV-1 Vif–A3G interaction blockers – biochemical, TR-FRET, GST-Vif 1-94, biotin-A3G peptide, dose response retest, primary screen (AID 1117319); type: functional;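 also: TR-FRET signal of purified GST-Vif binding a biotinylated A3G peptide; inhibitors lower the FRET signal by blocking Vif and A3G binding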
# [3] = reduction of Shn3 3'UTR-driven luciferase in osteoblasts – cell-based, Clone20 osteoblasts, firefly luciferase, cherry-picked, dose response (AID 624132); type: functional;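 also: firefly luciferase luminescence from reporter carrying the Shn3 3'UTR in osteoblasts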
# [4] = HEK-293T viability loss, compound-treated – cell-based, uHTS hits, cytotoxicity control for B/T-cell NF-kB inhibitor project, dose response (AID 489019); type: functional;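 also: IC50 reflects cytotoxicity as loss of cell viability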
# [5] = tested on: INS1; test: INS-1E survival protection against cytokine death – cell-based, luminescence, retest, dose response (AID 449756); type: functional; conditions: Rattus norvegicus;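 also: cell death triggered by IL-1 beta plus TNF-alpha plus IFN-gamma mixture; protective hits raise ATP signal compared with cytokine alone wells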
# [6] = non-specific 3'UTR reporter inhibition in Clone20-Shn3RL – cell-based, Renilla luciferase, cherry-picked, counter-screen for Shn3 inhibitor project, dose response (AID 624133); type: functional
# [7] = biological target: T2, Microphthalmia-associated transcription factor (Homo sapiens, UniProt O75030); test: reducers of TRPM1 reporter luminescence, concentration series – cell-based, SK-MEL-5, cherry-picked, set 3, MITF inhibitor project, dose response (AID 493073); type: functional;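 also: SK-MEL-5 melanoma cells with luciferase driven by the MITF target TRPM1 promoter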
# T2 sequence (O75030 whole entry): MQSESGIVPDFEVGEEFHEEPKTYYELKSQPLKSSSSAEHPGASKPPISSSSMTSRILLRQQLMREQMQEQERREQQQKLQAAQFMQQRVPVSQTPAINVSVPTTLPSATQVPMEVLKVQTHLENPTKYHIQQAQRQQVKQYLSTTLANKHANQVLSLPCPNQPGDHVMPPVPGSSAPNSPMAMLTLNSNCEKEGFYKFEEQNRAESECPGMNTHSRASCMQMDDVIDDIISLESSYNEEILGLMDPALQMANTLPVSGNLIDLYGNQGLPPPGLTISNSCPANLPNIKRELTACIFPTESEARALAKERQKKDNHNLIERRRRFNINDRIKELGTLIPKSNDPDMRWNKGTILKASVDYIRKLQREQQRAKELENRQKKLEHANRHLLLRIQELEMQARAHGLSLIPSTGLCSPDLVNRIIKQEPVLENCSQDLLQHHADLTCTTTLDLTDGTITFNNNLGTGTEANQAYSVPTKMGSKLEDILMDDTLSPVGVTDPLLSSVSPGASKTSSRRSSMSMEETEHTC
# [8] = tested on: Jurkat; test: blockers of NF-kB activation in T cells – Jurkat, luciferase reporter, luminescence, B- and T-cell, dose response (AID 489004); type: functional, cell-based; conditions: Homo sapiens;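 also: NF-kB luciferase reporter Jurkat cells stimulated with PMA plus ionomycin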
# [9] = loss of viability in HepG2 cells – cell-based, CellTiter-Glo, cherry-picked, cytotoxicity control for Shn3 inhibitor project, dose response (AID 624134); type: functional
# [10] = biological target: T3, COUP transcription factor 2 (Homo sapiens, UniProt P24468); test: Luminescence-based cell-based high throughput dose response assay to identify inhibitors of COUP-TFII (NR2F2).; type: functional;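 also: HEK293 cells transiently cotransfected with COUP-TFII expression vector and reporter; luciferase reporter luminescence driven by COUP-TFII from the pX2-168 reporter plasmid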
# T3 sequence (P24468 whole entry): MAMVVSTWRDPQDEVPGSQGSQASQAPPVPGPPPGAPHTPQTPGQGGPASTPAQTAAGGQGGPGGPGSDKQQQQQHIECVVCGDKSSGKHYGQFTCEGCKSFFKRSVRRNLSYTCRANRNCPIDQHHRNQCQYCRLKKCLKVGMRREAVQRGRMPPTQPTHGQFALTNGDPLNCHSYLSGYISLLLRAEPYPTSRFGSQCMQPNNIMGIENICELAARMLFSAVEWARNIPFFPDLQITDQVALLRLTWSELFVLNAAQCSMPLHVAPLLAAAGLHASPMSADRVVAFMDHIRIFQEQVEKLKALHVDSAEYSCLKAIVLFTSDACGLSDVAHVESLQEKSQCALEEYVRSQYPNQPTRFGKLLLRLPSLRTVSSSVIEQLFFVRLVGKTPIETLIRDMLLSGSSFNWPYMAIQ
# [11] = blockers of HIV-1 envelope-mediated cell-cell fusion – cherry-pick, dose response (AID 652057); type: functional, cell-based
# [12] = off-target signal loss in HeLa-CEM21 co-culture – HeLa F-luc CTL cells, cherry-picked, counter-screen for HIV-1 Env fusion inhibitor project, dose response (AID 652040); type: functional, cell-based;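 also: potency for signal decrease marking cytotoxic or nonspecific inhibition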
# [13] = blockers of HIV-1 ZM109 envelope-driven cell-cell fusion – HeLa effector, CEM target cells, luciferase, cherry-pick, dose response (AID 652058); type: functional, cell-based;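 also: luciferase signal from HIV-1 Env mediated cell-cell fusion of effector and target cells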
# [14] = HIV-1 AD8 envelope cell-cell fusion blockers – cherry-pick, dose response (AID 652062); type: functional, cell-based;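 also: luciferase signal from cell-cell fusion driven by HIV-1 clade B AD8 Env; potency is for inhibitors of fusion seen as a drop in luminescence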
# [15] = tested on: Vero; test: mammalian cell viability reduction – secondary assay, cytotoxicity control for West Nile virus antiviral project, dose response (AID 1650); type: functional; conditions: Chlorocebus sabaeus
# [16] = Luminescence Cell-Based Dose Response HTS to Identify Activators of Luciferase Translation or Activity in H4 […] Cells. [Related pubchem assays: 1829 (Project Summary), 1814 (Primary HTS)]; type: functional
# [17] = NIH3T3 cell viability loss – ATP luminescence, mouse fibroblasts, counter-screen, dose response (AID 2010); type: functional, cell-based;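 also: cells exposed to compound for about 90 hours before reading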
# [18] = viability loss in Vero cells – cytotoxicity control for Vif-APOBEC3G degradation inhibitor project, dose response (AID 1117358); type: functional; conditions: Vero
# [19] = Luminescence Cell-Based Dose Confirmation HTS to Identify Activators of 5'UTR Stem-Loop Driven Alpha-Synuclein mRNA Translation in H4 Neuroglioblastoma Cells. [Related pubchem assays: 1829 (Project Summary), 1814 (Primary HTS)]; type: functional
# [20] = Trypanosoma cruzi growth suppression in host cells – NIH3T3 host cells, beta-gal luminescence, confirmation (AID 2044); type: functional, cell-based;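 also: intracellular parasites grown in NIH/3T3 mouse fibroblasts as host cells; luminescent beta-galactosidase reporter signal from transgenic T. cruzi replicating inside host cells; inhibitors lower the luminescence signal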
# [21] = tested on: H4; test: Luminescence Cell-Based Dose Response HTS to Identify Activators of 5'UTR Stem-Loop Driven Prion Protein mRNA Translation in H4 Neuroglioblastoma Cells. [Related pubchem assays: 1829 (Project Summary), 1814 (Primary HTS)]; type: functional; conditions: Homo sapiens
# [22] = biological target: Heat shock protein HSP 90-alpha (Homo sapiens, UniProt P07900); test: Luminescence-based dose response biochemical high throughput screening assay for inhibitors of the Heat Shock Protein 90 (HSP90). [Related pubchem assays: 1831 (Summary AID.), 1846 (Confirmation screen.), 1789 (Primary screen.)]
# [23] = biological target: FAD-linked sulfhydryl oxidase ALR (Homo sapiens, UniProt P55789); test: ALR-catalysed DTT oxidation blockers – biochemical, H2O2 detection, luminescence, cherry-pick, dose response (AID 493248)
# FAD-linked sulfhydryl oxidase ALR, sequence (P55789 whole entry): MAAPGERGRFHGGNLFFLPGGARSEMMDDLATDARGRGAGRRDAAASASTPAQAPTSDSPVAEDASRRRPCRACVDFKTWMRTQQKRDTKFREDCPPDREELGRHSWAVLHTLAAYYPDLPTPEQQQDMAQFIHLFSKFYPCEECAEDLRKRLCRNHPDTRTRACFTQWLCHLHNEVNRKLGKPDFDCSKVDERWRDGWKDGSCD
# [24] = biological target: T4, Leucine aminopeptidase (Plasmodium falciparum 3D7, UniProt Q8IL11); test: P. falciparum M17LAP inhibitors, primary screen, biochemical, fluorogenic H-Leu-NHMec substrate, 1536-well (AID 1619); type: functional
# T4 sequence (Q8IL11 whole entry): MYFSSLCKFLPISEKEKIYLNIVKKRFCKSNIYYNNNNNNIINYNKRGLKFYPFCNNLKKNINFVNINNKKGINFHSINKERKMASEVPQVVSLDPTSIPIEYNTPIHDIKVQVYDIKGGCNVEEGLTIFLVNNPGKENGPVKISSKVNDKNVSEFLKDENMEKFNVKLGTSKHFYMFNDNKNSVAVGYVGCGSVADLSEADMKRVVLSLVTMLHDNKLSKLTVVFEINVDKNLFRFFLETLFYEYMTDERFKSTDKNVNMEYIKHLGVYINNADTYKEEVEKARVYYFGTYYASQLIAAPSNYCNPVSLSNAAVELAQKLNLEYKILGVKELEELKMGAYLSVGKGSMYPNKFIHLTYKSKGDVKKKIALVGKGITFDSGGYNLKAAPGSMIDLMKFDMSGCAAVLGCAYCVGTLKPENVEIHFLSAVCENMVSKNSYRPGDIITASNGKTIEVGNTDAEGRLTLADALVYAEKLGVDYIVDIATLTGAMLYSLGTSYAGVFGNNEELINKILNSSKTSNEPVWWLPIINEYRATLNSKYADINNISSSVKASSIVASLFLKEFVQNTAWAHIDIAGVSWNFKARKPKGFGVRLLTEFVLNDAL
# [25] = biological target: T5, Tyrosine-protein phosphatase non-receptor type 7 (Homo sapiens, UniProt P35236); test: HePTP tyrosine phosphatase activity blockers – biochemical, absorbance, leukemia target, primary screen (AID 521); type: functional
# T5 sequence (P35236 whole entry): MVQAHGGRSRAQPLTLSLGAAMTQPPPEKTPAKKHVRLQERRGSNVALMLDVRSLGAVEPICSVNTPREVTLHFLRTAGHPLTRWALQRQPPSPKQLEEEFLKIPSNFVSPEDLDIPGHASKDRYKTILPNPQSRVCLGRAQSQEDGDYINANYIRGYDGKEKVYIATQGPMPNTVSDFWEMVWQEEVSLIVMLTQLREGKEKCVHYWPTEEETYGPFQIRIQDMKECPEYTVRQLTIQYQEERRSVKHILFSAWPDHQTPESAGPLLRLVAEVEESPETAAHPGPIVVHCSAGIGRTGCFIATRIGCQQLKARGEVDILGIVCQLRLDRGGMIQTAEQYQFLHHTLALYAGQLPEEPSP
structure (smiles),measurement,setting,value
O=C(NC(=S)Nc1ccc(F)c(Cl)c1)C1CC1,EC50,[1],0.861 µM (active)
COc1ccc(S(=O)(=O)NC2CC(C)(C)NC(C)(C)C2)c(C)c1C,IC50,[2],> 100 µM (active)
COc1cc(NC(=O)COc2cc(O)c3c(c2)OC(C)(C)CC3=O)cc(OC)c1OC,AC50,[3],0.354 µM (active)
same,IC50,[4],69.1 µM (inactive)
same,AC50,[5],3.99 µM (active)
same,AC50,[6],0.727 µM (active)
same,AC50,[7],5.36 µM (active)
same,IC50,[8],39.9 µM (inactive)
same,AC50,[9],2.04 µM (active)
same,IC50,[10],2.54 µM (active)
CN1CCN(c2ccccc2NC(=O)C(Cc2ccccc2)n2cccc2)CC1 (stereo unspecified),IC50,[2],> 100 µM (active)
same,AC50,[11],6.11 µM (active)
same,AC50,[12],12.3 µM (active)
same,AC50,[13],6.39 µM (active)
same,AC50,[14],17.5 µM (active)
CCc1ccc(NC(=O)C(=O)NCCN2CCN(Cc3ccc([N+](=O)[O-])cc3)CC2)cc1,CC50,[15],37.7 µM (active)
N#C/C(=C/c1ccccc1)c1nn(CCO)c(N)c1C#N,EC50,[1],6.55 µM (active)
Fc1ccc(C(CCCn2nnc(-c3cccnc3)n2)c2ccc(F)cc2)cc1,EC50,[16],16.3 µM (active)
same,EC50,[17],> 30 µM (not active)
same,CC50,[18],> 40 µM (active)
same,EC50,[19],13.7 µM (active)
same,EC50,[20],2.22 µM (active)
same,EC50,[21],> 120 µM (not active)
Cc1ccc(-c2csc(NC(=O)C3CCN(S(=O)(=O)c4cccs4)CC3)n2)cc1,IC50,[4],> 80 µM (inactive)
same,IC50,[8],8.06 µM (active)
same,IC50,[10],8.11 µM (active)
COc1cc(/C=N/Nc2ccc(Cl)c(C(=O)O)c2)ccc1OC(=O)c1cccs1,IC50,[22],1.32 µM (active)
same,AC50,[23],5.23 µM (active)
same,IC50,[24],55.5 µM (active)
C/C(=N\NC(=O)c1cccnc1)c1ccc(-n2ccnc2)cc1,EC50,[1],5.46 µM (active)
CC(=O)OCC1=C(C(=O)O)N2C(=O)[C@@H](NC(=O)Cc3cccs3)[C@H]2SC1 [CEPHALOTHIN SODIUM],IC50,[25],0.92 µM (active)
